Data on 1 substance can be found in patent US20110183892A1 (priority 2007, published 2011).

One data set deals with HIV-1 −1 PRF signal. The class given is cell-based, human. The settings on record: for stimulation of HIV-1 directed −1 PRF: 5-500 μg/ml; for dose dependence of HIV-1 mediated −1 PRF: Example 2.
Data set [1] concerns SARS-CoV frameshift signal. It counts as cell-based, human.
Data set [2] deals with endogenous yeast "Killer" virus. Briefly: Yeast Killer virus maintenance assay after serial passage. It counts as cell-based. The following applies: serial passage every 24 h for eight days.
Data set [3] has as its system M1 satellite virus dsRNA genome. The data set can be described thus: dsRNA extraction and TAE-agarose gel of Killer yeast cells. It counts as cell-based. The following applies: gentamicin treated Killer− cells, ~10-times more RNA loaded than control.
The test system of the next data set is HIV-1 strain LAI. Briefly: Limit-dilution titer of infectious virus with p24 antigen capture assay. The class given is cell-based. The following applies: Jurkat E6-1, 250 μg/ml, days 4-10 post infection. The protocol:
(A) Jurkat E6-1 cells were grown in RPMI-1640 media supplemented with 10% FBS. Cells were infected with HIV-1 (LAI) at an MOI of 0.01 in media containing gentamicin at 0, 50, 250, or 500 μg/ml. Infected or mock infected cells were maintained in the above media containing the corresponding concentration of gentamicin. Clarified viral supernatant was assayed for RT activity on days 2, 4, 6, 8, and 10 post infection. […] Results are from an average of 3 experiments with error bars corresponding to standard deviation values. (B) Clarified viral supernatants from days 4, 6, 8, and 10 above were used to perform limit-dilution assays in order to determine the level of infectious virus produced in untreated and gentamicin treated cells. A p24 antigen capture assay was used to detect virus. Results are reported as TCID50/ml vs. day post infection. The antigen capture assay was repeated with similar results while the RT activity assay was repeated twice with similar results.
Cells and viruses. Jurkat E6-1 cells (obtained through the ATCC) were cultured in RPMI-1640 supplemented with 10% fetal bovine serum at 37° C. and 5% CO2 according to the ATCC data sheet. HIV-1 strain LAI was obtained through the NIH AIDS Research and Reference Reagent Program.
HIV infection of Jurkat cells. All experiments were performed with Jurkat cells in 24-well plates and in duplicate. […]

Another data set relates to Jurkat E6-1 cells. The settings on record: Jurkat E6-1, 500 μg/ml.
A further data set has as its target HIV-1 RT (Human immunodeficiency virus type 1 group M subtype B, UniProt P04585). Briefly: Control experiments on HIV-1 RT activity.
The mark [4] stands for this setting: HeLa cells, 5, 25, 50, 250 and 500 ug/ml.
Where [5] appears, read: Jurkat cells, 5, 25, 50, 250 and 500 ug/ml.

Where two headings read alike, the source gives them in different places.

Turning to gentamicin, in the data set with HIV-1 −1 PRF signal (HeLa CD4+ and Jurkat cells, 50 μg/ml), the “HIV-1 directed −1 PRF at the concentration normally used in cell culture” value is reported as “increased −1 PRF was observed”. Further, the “stimulation of HIV-1 directed −1 PRF” value is given as “about 40%” with HIV-1 −1 PRF signal (HeLa CD4+ cells); “up to 40%” in the data set with HIV-1 −1 PRF signal (HeLa CD4+ cells, listed as Gentamicin); “about 40%” in the data set on HIV-1 −1 PRF signal (Jurkat cells); “up to 40%” in the data set on HIV-1 −1 PRF signal (Jurkat cells, listed as Gentamicin). The “dose dependence of HIV-1 mediated −1 PRF” value with HIV-1 −1 PRF signal (setting [4]) and in the data set on HIV-1 −1 PRF signal (setting [5]) was “dose-dependently increased” in each case. Further, the “dose dependence of SARS-CoV mediated −1 PRF” value in data set [1] (setting [4]) and in data set [1] (setting [5]) was “dose-dependently increased” throughout. The Killer phenotype maintenance result in data set [2] (50 μg/ml) and in data set [2] (500 μg/ml) was “rapid loss of the Killer phenotype” each time. For the same substance, the “presence of M1 dsRNA genome” value in data set [3] is recorded as “no longer present”. Also, the “infectious virus in cell-free supernatant” value in the data set with HIV-1 strain LAI is “no infectious virus was made”. Besides, the figures for the cell toxicity entry with Jurkat E6-1 cells and with Jurkat E6-1 cells (listed as Gentamicin) were “Significant cell toxicity” and “significant cell toxicity”, respectively. The “effect on HIV-1 RT activity” value on HIV-1 RT was “did not affect HIV-1 RT activity”.
